Assay results taken from patent US8017612B2, “Piperazine compound and use thereof as a HCV polymerase inhibitor” (priority 2006, dated 2011).

Assays:
[1] = molecular target: T1, HCV polymerase (NS5B) type 1b (Hepatitis C virus genotype 1b, UniProt P26663); assay: Assay of enzyme (HCV polymerase) inhibitory activity, type 1b enzyme; assay type: biochemical, HCV BK strain (type 1b)
T1 construct: a region encoding NS5B (J Virol 1991 March, 65(3), 1105-13, 544 amino acids after deletion of 47 amino acids on the C-terminal); 6xHis (C); made in house; host or cells: Escherichia coli
Method in brief: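 NS5B from HCV BK strain (type 1b), C-terminal 47 aa deleted, C-terminal His6-tagged, E. coli-expressed, 0.5 μg/ml, with ~450 nt substrate RNA carrying the 3′ UTR (polyU, 3′X) at 5 μg/ml. Incubation 60 min at 25 °C with 50 μM ATP/GTP/CTP, 2 μM UTP plus [3H]UTP, pH 7.5 Tris.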

[2] = molecular target: T2, HCV polymerase (NS5B) type 1a (Hepatitis C virus genotype 1a, UniProt P26664); assay: Assay of enzyme (HCV polymerase) inhibitory activity, type 1a enzyme; assay type: biochemical, HCV type 1a (cloned from the blood of patients)
T2 construct: made in house; host or cells: Escherichia coli (by the 'similar method' of the 1b enzyme)
Method in brief: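 Patient-derived type 1a NS5B (C-terminal 47-aa deletion, His-tagged, E. coli-expressed) at 1.5 μg/ml was reacted with 5 μg/ml 3′UTR-containing substrate RNA, 50 μM ATP/GTP/CTP, 2 μM UTP plus [3H]UTP, pH 7.5, 25° C for 60 min. TCA-precipitated RNA radioactivity was counted; IC50 from ± compound.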

[3] = HCV polymerase inhibitory activity IC50, 1b, type 1b enzyme
[4] = HCV polymerase inhibitory activity IC50, 1a, type 1a enzyme
[5] = HCV polymerase inhibitory activity (IC50), 1b, type 1b enzyme 0.5 μg/ml, 25° C., 60 min
[6] = HCV polymerase inhibitory activity (IC50), 1a, type 1a enzyme 1.5 μg/ml, 25° C., 60 min

SMILES | IC50 [1, 3] | IC50 [2, 4] | IC50 [1, 5] | IC50 [2, 6]
CC(=O)N1CCN(S(=O)(=O)c2ccc(OC(F)(F)F)cc2)[C@@H](C(=O)NCCc2cccc(O)c2)C1 [Example 674, (R)-4-acetyl-1-(4-trifluoromethoxy-benzenesulfonyl)-piperazine-2-carboxylic acid [2-(3-hydroxy-phenyl)-ethyl]-amide] | > 1000 nM | > 1000 nM |  | 
Cc1nc(N2CCN(S(=O)(=O)c3ccc(OC(F)(F)F)cc3)[C@@H](C(=O)NCc3ccc(C(C)C)cc3)C2)sc1C(=O)NCCC(=O)OC(C)(C)C [Example 359, 3-({2-[(R)-3-(4-isopropyl-benzylcarbamoyl)-4-(4-trifluoromethoxy-benzenesulfonyl)-piperazin-1-yl]-4-methyl-thiazole-5-carbonyl}-amino)-propionic acid tert-butyl ester] |  |  | < 100 nM | < 100 nM
O=C(NCc1ccc(-c2cccs2)cc1)[C@H]1CN(c2cnc3cncnc3n2)CCN1S(=O)(=O)c1ccc(OC(F)(F)F)cc1 [Example 652, (R)-4-pteridin-7-yl-1-(4-trifluoromethoxy-benzenesulfonyl)-piperazine-2-carboxylic acid 4-thiophen-2-yl-benzylamide] |  |  | < 100 nM | < 100 nM
O=C(NCc1ccc(OC(F)(F)F)cc1)[C@H]1CN(c2nc3nc(C4CC4)ncc3s2)CCN1S(=O)(=O)c1ccc(C2CC2)cc1 [Example 1099, (R)-1-(4-cyclopropyl-benzenesulfonyl)-4-(5-cyclopropyl-thiazolo [4,5-d]pyrimidin-2-yl)-piperazine-2-carboxylic acid 4-trifluoromethoxy-benzylamide] | < 100 nM | < 100 nM |  | 
CC(=O)N1CCN(S(=O)(=O)c2ccc3c(c2)CCCC3)[C@@H](C(=O)NCc2ccc(C(C)C)cc2)C1 [Example 203, (R)-4-acetyl-1-(5,6,7,8-tetrahydro-naphthalene-2-sulfonyl)-piperazine-2-carboxylic acid 4-isopropyl-benzylamide] |  |  | < 100 nM | 100 to 1000 nM
CCC(F)(F)c1ccc(CNC(=O)[C@H]2CN(C(=O)Nc3nc[nH]n3)CCN2S(=O)(=O)c2ccc(OC(F)(F)F)cc2)cc1 [Example 565, (R)-4-(4-trifluoromethoxy-benzenesulfonyl)-piperazine-1,3-dicarboxylic acid 3-[4-(1,1-difluoro-propyl)-benzylamide] 1-[(1H-[1,2,4]triazol-3-yl)-amide]] |  |  | < 100 nM | 100 to 1000 nM
CCC(F)(F)c1ccc(CNC(=O)[C@H]2CN(c3cnc4cncnc4n3)CCN2S(=O)(=O)c2ccc(C(F)(F)F)cc2)cc1 [Example 686, (R)-4-pteridin-7-yl-1-(4-trifluoromethyl-benzenesulfonyl)-piperazine-2-carboxylic acid 4-(1,1-difluoro-propyl)-benzylamide] | < 100 nM | < 100 nM |  | 
O=C(NCc1ccc(OC(F)F)cc1F)[C@H]1CN(c2nc3ncncc3s2)CCN1S(=O)(=O)c1ccc(OC(F)(F)F)cc1 [Example 998, (R)-4-thiazolo[4,5-d]pyrimidin-2-yl-1-(4-trifluoromethoxy-benzenesulfonyl)-piperazine-2-carboxylic acid 4-difluoromethoxy-2-fluoro-benzylamide] | < 100 nM | < 100 nM |  | 
COc1ccc(S(=O)(=O)N2CCN(C(C)=O)C[C@@H]2C(=O)NCc2ccc(C(C)C)cc2)cc1 [Example 214, (R)-4-acetyl-1-(4-methoxy-benzenesulfonyl)-piperazine-2-carboxylic acid 4-isopropyl-benzylamide] |  |  | 100 to 1000 nM | 100 to 1000 nM
CC(=O)N1CCN(S(=O)(=O)c2ccc(OC(F)(F)F)cc2)[C@@H](C(=O)NCc2ccc(-c3ccccn3)s2)C1 [Example 598, (R)-4-acetyl-1-(4-trifluoromethoxy-benzenesulfonyl)-piperazine-2-carboxylic acid (5-pyridin-2-yl-thiophen-2-ylmethyl)-amide] |  |  | 100 to 1000 nM | 100 to 1000 nM
CCCc1ccc(CNC(=O)[C@H]2CN(c3cnc4cncnc4n3)CCN2S(=O)(=O)c2ccc(OC(F)(F)F)cc2)s1 [Example 857, (R)-4-pteridin-7-yl-1-(4-trifluoromethoxy-benzenesulfonyl)-piperazine-2-carboxylic acid (5-propyl-thiophen-2-ylmethyl)-amide] | < 100 nM | < 100 nM |  | 
O=C(NCc1ccc(OC(F)(F)F)cc1)[C@H]1CN(c2cnc3cnccc3n2)CCN1S(=O)(=O)c1ccc(N2CCCC2)cc1 [Example 755, (R)-4-pyrido[3,4-b]pyrazin-2-yl-1-(4-pyrrolidin-1-yl-benzenesulfonyl)-piperazine-2-carboxylic acid 4-trifluoromethoxy-benzylamide] | < 100 nM | < 100 nM |  | 
O=C(NCc1ccc(OC(F)(F)F)cc1)[C@H]1CN(c2nc3ccncc3s2)CCN1S(=O)(=O)c1ccc(OC(F)(F)F)cc1 [Example 768, (R)-4-thiazolo[5,4-c]pyridin-2-yl-1-(4-trifluoromethoxy-benzenesulfonyl)-piperazine-2-carboxylic acid 4-trifluoromethoxy-benzylamide] | < 100 nM | < 100 nM |  | 
O=C(NCc1ccc(OC(F)(F)F)cc1)[C@H]1CN(c2nc3nc(F)ncc3s2)CCN1S(=O)(=O)c1ccc(OC(F)(F)F)cc1 [Example 972, (R)-4-(5-fluoro-thiazolo[4,5-d]pyrimidin-2-yl)-1-(4-trifluoromethoxy-benzenesulfonyl)-piperazine-2-carboxylic acid 4-trifluoromethoxy-benzylamide] | < 100 nM | < 100 nM |  | 
CN(C)c1ccc(CNC(=O)[C@H]2CN(C(=O)CN3CCOCC3)CCN2S(=O)(=O)c2ccc(I)cc2)cc1 [Example 160, (R)-1-(4-iodo-benzenesulfonyl)-4-(2-morpholin-4-yl-acetyl)-piperazine-2-carboxylic acid 4-dimethylamino-benzylamide] |  |  | 100 to 1000 nM | 100 to 1000 nM
CCOC(=O)c1cnc(N2CCN(S(=O)(=O)c3ccc(C(F)(F)F)cc3)[C@@H](C(=O)NCc3ccc(C(C)C)cc3)C2)nc1O [Example 325, 4-hydroxy-2-[(R)-3-(4-isopropyl-benzylcarbamoyl)-4-(4-trifluoromethyl-benzenesulfonyl)-piperazin-1-yl]-pyrimidine-5-carboxylic acid ethyl ester] |  |  | 100 to 1000 nM | > 1000 nM
COc1ccccc1CC(=O)N1CCN(S(=O)(=O)c2ccc(C(F)(F)F)cc2)[C@@H](C(=O)NCc2ccc(C(C)C)cc2)C1 [Example 267, (R)-4-[2-(2-methoxy-phenyl)-acetyl]-1-(4-trifluoromethyl-benzenesulfonyl)-piperazine-2-carboxylic acid 4-isopropyl-benzylamide] |  |  | 100 to 1000 nM | > 1000 nM
O=C(O)CCn1ncc2sc(N3CCN(S(=O)(=O)c4ccc(OC(F)(F)F)cc4)[C@@H](C(=O)NCc4ccc(OC(F)(F)F)cc4)C3)nc2c1=O [Example 1112, 3-{4-oxo-2-[(R)-4-(4-trifluoromethoxy-benzenesulfonyl)-3-(4-trifluoromethoxy-benzylcarbamoyl)-piperazin-1-yl]-4H-thiazolo[4,5-d]pyridazin-5-yl}propionic acid] | < 100 nM | < 100 nM |  | 
CC(C)(C)c1ccc(CNC(=O)[C@H]2CN(c3nc(CO)c(C(=O)O)s3)CCN2S(=O)(=O)c2ccc(OC(F)(F)F)cc2)cc1 [Example 603, 2-[(R)-3-(4-tert-butyl-benzylcarbamoyl)-4-(4-trifluoromethoxy-benzenesulfonyl)-piperazin-1-yl]-4-hydroxymethyl-thiazole-5-carboxylic acid] |  |  | 100 to 1000 nM | 100 to 1000 nM
O=C(NCc1ccc(OC(F)(F)F)cc1)[C@H]1CN(c2cnc3cncnc3n2)CCN1S(=O)(=O)c1ccc([N+](=O)[O-])cc1 [Example 790, (R)-1-(4-nitro-benzenesulfonyl)-4-pteridin-7-yl-piperazine-2-carboxylic acid 4-trifluoromethoxy-benzylamide] | < 100 nM | < 100 nM |  | 
CC(=O)N1CCN(S(=O)(=O)c2ccc(OC(F)(F)F)cc2)[C@@H](C(=O)NCc2cnc(C)cn2)C1 [Example 719, (R)-4-acetyl-1-(4-trifluoromethoxy-benzenesulfonyl)-piperazine-2-carboxylic acid (5-methyl-pyrazin-2-ylmethyl)-amide] | > 1000 nM | > 1000 nM |  | 
CCC(F)(F)c1ccc(CNC(=O)[C@H]2CN(C(=O)C(C)(C)C)CCN2S(=O)(=O)c2ccc(OC(F)(F)F)cc2)cc1 [Example 611, (R)-4-(2,2-dimethyl-propionyl)-1-(4-trifluoromethoxy-benzenesulfonyl)-piperazine-2-carboxylic acid 4-(1,1-difluoro-propyl)-benzylamide] |  |  | > 1000 nM | > 1000 nM
CCCc1ccc(CNC(=O)[C@H]2CN(c3ccc(O)nn3)CCN2S(=O)(=O)c2ccc(OC(F)(F)F)cc2)cc1 [Example 546, (R)-4-(6-hydroxy-pyridazin-3-yl)-1-(4-trifluoromethoxy-benzenesulfonyl)-piperazine-2-carboxylic acid 4-propyl-benzylamide] |  |  | < 100 nM | < 100 nM
